# Where two headings read alike, the source gives them in different places.
# Key:
# HDAC1 = HDAC1 (Homo sapiens (Human), UniProt Q13547); assay: HDAC subtype enzymatic activity assay, HDAC1; format: biochemical; settings: read-out: HADC1 Inhibition rate (%)
# Protocol: The inhibitory activity of the compounds of the present application on HDAC1-5 and 7-11 was evaluated by an enzymatic activity assay.
# 1 M Trypsin and 10 M TSA were added, and the plate was incubated at room temperature for 15 min. […] IC50 was obtained by fitting using GraphPadPrism 7.0 software.
# [1] = system: acetylation level of α-tubulin in A375 cells; assay: Assay on acetylation level of α-tubulin, A375 cells; format: cell-based; settings: Homo sapiens, A-375, 6 h
# Protocol: A375/HCT116/HCC827 cells at a logarithmic growth phase were taken, digested with a […] (trypsin), centrifuged, counted, and plated in a 96-well plate at an appropriate cell density (30,000 cells/well) at 100 µL/well, and an appropriate amount of PBS was added around the plate for water sealing. The next day, the cells were treated with the compounds at different concentrations (starting at 100 μM, 5-fold dilution, 9 concentration gradients). After 6 h, the medium was pipetted out and the cells were washed twice with 100 μL of PBST. The cells were then immobilized in 4% paraformaldehyde, and the plate was incubated at room temperature for 20 min. The stationary liquid was discarded and the cells were washed with PBST. 150 μL of special blocking buffer (containing 1% Triton-100) was added to each well for blocking at room temperature for 2 h, and the plate was washed with PBS to remove excess blocking buffer. α-tubulin (DM1A) mouse mAb and acetyl-α-tubulin (Lys40) (D20G3) XP rabbit mAb were diluted at a 1:2000 ratio with a blocking buffer containing 0.033% Triton-100. The dilutions were added to the 96-well plate and the plate was incubated overnight at 4° C. Meanwhile, a blank control group was set. The next day, the plate was washed twice with PBST. […] Fluorescence signals at 700 nm and 800 nm were detected with a Li-COR Odyssey two-color near-infrared laser imager.
# [2] = Phase I metabolic stability in dog liver microsomes (DLMs); format: in vitro ADME, beagle dogs; design: half-life: dose or concentration left out as unconfirmed; settings: DLM; for Remaining rate (NCF = 60 min): buffer instead of NADPH regeneration system; for Remaining rate (T = 60 min): with NADPH; for CLint scaled at 1 µM / half-life / microsomal CLint at 1 M: beagle, dog, liver microsomes, pH 7.4; for microsomal CLint at 1 M: read-out: CLint (mic)
# Protocol: (§1) Phase I metabolic stability of the test compounds in liver microsomes of CD-1 mice (MLMs), Sprague-Dawley rats (RLMs), beagle dogs (DLMs), cynomolgus monkeys (CLMs), and humans (HLMs) was evaluated.
# (§2) The animal and human liver microsomes used in the test system were purchased from Xenotech, Corning, or other qualified suppliers and stored in a freezer at a temperature below −60° C. prior to use.
# (§3) The test samples and control compounds were separately incubated with animal and human liver microsomes at 37±1° C. for a period of incubation time up to 60 min. The samples were removed at the indicated time points, and the reaction was stopped with acetonitrile or other organic solvents containing an internal standard. After centrifugation, the resulting supernatants were assayed by liquid chromatography-tandem mass spectrometry (LC-MS/MS).
# (§4) 73.21 g of dipotassium hydrogenphosphate trihydrate and 10.78 g of potassium dihydrogenphosphate were dissolved in 4000 mL of ultrapure water. The solution was adjusted to pH 7.40±0.10 with 10% phosphoric acid or 1 M potassium hydroxide to make a final concentration of 100 mM.
# (§5) The test sample powder was prepared into a stock solution at a certain concentration with DMSO or other organic solvents, which was then further diluted with a proper organic solvent.
# (§6) Microsomes of each species were diluted into a 2× working solution with a 100 mM potassium phosphate buffer. The final concentration of the microsomes in the reaction system was 0.5 mg/mL.
# (§7) An appropriate amount of nicotinamide adenine dinucleotide phosphate (NADP) and isocitric acid (ISO) powder was weighed out, dissolved in a magnesium chloride solution, and shaken and mixed well. An appropriate amount of isocitrate dehydrogenase (IDH) was added, and the mixture was mixed well by gently turning upside down. The final concentrations in the reaction system were: 1 mM NADP, 1 mM magnesium chloride, 6 mM ISO, and 1 unit/mL IDH.
# (§8) Incubation was performed in a 96-well plate. Eight incubation plates were prepared and designated T0, T5, T15, T30, T45, T60, Blank60, and NCF60, respectively. The first 6 plates corresponded to reaction time points of 0, 5, 15, 30, 45, and 60 min, respectively. No test sample or control compound was added to the Blank60 plate, and samples were taken after 60 min of incubation. In the NCF60 plate, incubation was performed for 60 min using the potassium phosphate buffer instead of the NADPH regeneration system solution. Three replicates were made for samples in all conditions.
# (§9) The microsomes and the test sample or control compound were mixed, and then the incubation plates Blank60, T5, T15, T30, T45, and T60 except for TO and NCF60 were placed in a 37° C. water bath for pre-incubation for about 10 min. In the incubation plate TO, a stop solution was first added, followed by addition of the NADPH regeneration system working solution, and 98 μL of the potassium phosphate buffer was added to each sample well of the incubation plate NCF60 to initiate the reaction. After the pre-incubations of the incubation plates Blank60, T5, T15, T30, T45, and T60 were completed, 98 μL of the NADPH regeneration system working solution was added to each sample well to initiate the reaction. The reaction temperature was 37±1° C., the final volume of the reaction was 200 μL, and the reaction system included 0.5 mg/mL microsomes, […], 1 mM NADP, 6 mM ISO, and 1 unit/mL IDH.
# (§10) At 5 min, 15 min, 30 min, 45 min, and 60 min, a cold stop solution containing an internal standard was added to the reaction plate to stop the reaction.
# (§11) All the reaction plates after the reaction was stopped were shaken well and centrifuged at 3220×g at 4° C. for 20 min. After the supernatant was diluted according to a certain proportion, LC-MS/MS analysis was performed.
# (§12) Sample analysis was performed by the liquid chromatography-tandem mass spectrometry (LC-MS/MS) method without standard curves and quality control samples. […]
# [3] = Phase I metabolic stability in monkey liver microsomes (CLMs); format: in vitro ADME, cynomolgus monkeys; design: microsomal CLint: dose or concentration left out as unconfirmed; settings: CLM; for Remaining rate (NCF = 60 min): buffer instead of NADPH regeneration system; for Remaining rate (T = 60 min): with NADPH; for CLint scaled at 1 µM / half-life at 1 M / microsomal CLint: cynomolgus monkey, liver microsomes, pH 7.4; for microsomal CLint: read-out: CLint (mic)
# Protocol: as §1, §2, §3, §4, §5, §6, §7, §8, §9, §10, §11, §12
# Sequence of HDAC1 (Q13547 whole entry): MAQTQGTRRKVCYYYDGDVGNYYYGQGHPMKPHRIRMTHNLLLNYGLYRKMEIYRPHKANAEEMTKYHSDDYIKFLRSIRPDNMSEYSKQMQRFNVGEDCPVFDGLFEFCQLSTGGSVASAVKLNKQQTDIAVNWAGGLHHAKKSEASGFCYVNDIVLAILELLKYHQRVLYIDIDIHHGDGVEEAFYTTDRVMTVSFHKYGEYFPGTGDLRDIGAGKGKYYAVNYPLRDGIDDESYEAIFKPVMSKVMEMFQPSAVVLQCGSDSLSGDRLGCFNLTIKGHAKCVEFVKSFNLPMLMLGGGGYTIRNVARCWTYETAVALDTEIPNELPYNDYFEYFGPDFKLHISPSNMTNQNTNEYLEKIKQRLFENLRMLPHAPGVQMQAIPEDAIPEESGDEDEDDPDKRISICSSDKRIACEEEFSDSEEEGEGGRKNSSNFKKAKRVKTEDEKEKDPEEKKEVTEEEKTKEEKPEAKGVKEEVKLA
Compound,inhibition at 1 µM (HDAC1; 1 μM) [%],inhibition at 10 µM (HDAC1; 10 μM) [%],EC50 [1] [nM],Remaining rate (NCF = 60 min) [2] [%],Remaining rate (T = 60 min) [2] [%],CLint scaled at 1 µM [2] [mL/min/kg],half-life [2] [h],microsomal CLint at 1 M [2] [µL/min/mg],Remaining rate (NCF = 60 min) [3] [%],Remaining rate (T = 60 min) [3] [%],CLint scaled at 1 µM [3] [mL/min/kg],half-life at 1 M [3] [h],microsomal CLint [3] [µL/min/mg],inhibition at 1 µM (HDAC1) [%],inhibition at 10 µM (HDAC1) [%]
CC(F)(F)C(=O)N[C@@H]1CCCC[C@H]1N1Cc2ccc(-c3nnc(C(F)F)o3)cc2S1(=O)=O [Compound 1],8.57,-3.17,393 ± 192,98.9,86.6,< 13.8,> 2.42,< 9.6,94.8,79.1,< 13,> 2.42,< 9.6,–,–
O=C(N[C@@H]1CCCC[C@H]1N1Cc2ccc(-c3nnc(C(F)F)o3)cc2S1(=O)=O)C(F)F [Compound 2],–,–,202 ± 115,90.9,85.8,< 13.8,> 2.42,< 9.6,101.5,88.8,< 13,> 2.42,< 9.6,-11.9,-3.91

# Reference: patent US20250257060A1, “OXADIAZOLE COMPOUND, PHARMACEUTICAL COMPOSITION COMPRISING SAME, AND USE THEREOF” (SUZHOU GENHOUSE BIO CO., LTD., priority 2022, published 2025)
